Measurements from ChEMBL document CHEMBL1201862, “PubChem BioAssay data set” (2004).
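Dose response: 5 concentrations. Exposure: 48 h. Format: 96-well plates. Endpoint: linear interpolation; highest concentration if not reached. GI50 = concentration required for 50% inhibition of growth.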 Activity calls are given as the source filed them. Rule as the data show it: active = GI50 up to about 1.1 µM and inactive = higher.

Tests used:
Experiment in all cases: NCI anticancer screen, dose series, 48 h
KM12 = test system: KM12
HCT-15 = test system: HCT-15
EKVX = test system: EKVX
OVCAR-8 = test system: OVCAR-8
NCI-H460 = test system: NCI-H460
OVCAR-4 = test system: OVCAR-4
DU-145 = test system: DU-145
HT-29 = test system: HT-29
SK-MEL-5 = test system: SK-MEL-5
SNB-19 = test system: SNB-19
786-0 = test system: 786-0
Hs-578T = test system: Hs-578T
HOP-62 = test system: HOP-62
UACC-257 = test system: UACC-257
MDA-N = test system: MDA-N
Malme-3M = test system: Malme-3M
MOLT-4 = test system: MOLT-4
SW-620 = test system: SW-620
HL-60 = test system: HL-60

Row | Compound | GI50 (KM12) | GI50 (HCT-15) [µM] | GI50 (EKVX) | GI50 (OVCAR-8) | GI50 (NCI-H460) | GI50 (OVCAR-4) | GI50 (DU-145) | GI50 (HT-29) | GI50 (SK-MEL-5) | GI50 (SNB-19) | GI50 (786-0) | GI50 (Hs-578T) | GI50 (HOP-62) | GI50 (UACC-257) | GI50 (MDA-N) | GI50 (Malme-3M) | GI50 (MOLT-4) | GI50 (SW-620) | GI50 (HL-60)
1 | CC1(C)N=C(N)N=C(N)N1c1ccc(CCCCc2ccc(Cl)cc2Cl)cc1 | 0.63 µM (active) | 5.04 | 15.1 µM (inactive) | 0.598 µM (active) | 0.0165 µM (active) | 0.542 µM (active) | 1.92 µM (inactive) | 0.546 µM (active) | 1.12 µM (inactive) | 0.527 µM (active) | 0.5 µM (active) | 4.67 µM (inactive) | 1.08 µM (active) | 0.659 µM (active) | 0.982 µM (active) | 0.486 µM (active) | 0.861 µM (active) | 0.356 µM (active) | 0.461 µM (active)
2 | Nc1ccc(-c2nc3cc(F)ccc3s2)cc1Br | 10.4 µM (inactive) | 0.144 | 2.71 µM (inactive) | 28.7 µM (inactive) | 0.0458 µM (active) | 23.8 µM (inactive) | 55.7 µM (inactive) | 0.368 µM (active) | 33.1 µM (inactive) | 53.3 µM (inactive) | 59 µM (inactive) | 36.7 µM (inactive) | 12.7 µM (inactive) | > 100 µM (inactive) | > 100 µM (inactive) | 33 µM (inactive) | > 100 µM (inactive) | > 93.8 µM (inactive) | 4.71 µM (inactive)
3 | Nc1ncnc2c1ncn2CCCNO | > 100 µM (inactive) | > 100 | > 100 µM (inactive) | > 100 µM (inactive) | > 100 µM (inactive) | > 100 µM (inactive) | > 100 µM (inactive) | > 100 µM (inactive) | > 100 µM (inactive) | > 100 µM (inactive) | > 100 µM (inactive) | > 100 µM (inactive) | > 100 µM (inactive) | > 100 µM (inactive) | > 100 µM (inactive) | > 100 µM (inactive) | > 100 µM (inactive) | > 100 µM (inactive) | > 100 µM (inactive)
4 | C[C@@H](NC(=O)Nc1cccc(C(=O)Nc2cc(C(C)(C)C)ccc2C(=O)O)n1)c1ccccc1 | 55.1 µM (inactive) | 44.2 | 52.5 µM (inactive) | 40.6 µM (inactive) | 52.1 µM (inactive) | 50.1 µM (inactive) | 40.2 µM (inactive) | 35.5 µM (inactive) | 30.1 µM (inactive) | 47 µM (inactive) | 37.5 µM (inactive) | 40.4 µM (inactive) | 28.4 µM (inactive) |  | 38.4 µM (inactive) | 46.5 µM (inactive) | 38 µM (inactive) | 39 µM (inactive) | 45.3 µM (inactive)
5 | CC(C)C/N=C(\N)N=C(N)N | > 100 µM (inactive) | > 100 | > 100 µM (inactive) | > 100 µM (inactive) | > 100 µM (inactive) | > 100 µM (inactive) | > 100 µM (inactive) | > 100 µM (inactive) | > 100 µM (inactive) | > 100 µM (inactive) | > 100 µM (inactive) | > 100 µM (inactive) | > 100 µM (inactive) | > 100 µM (inactive) | > 100 µM (inactive) | > 100 µM (inactive) | > 100 µM (inactive) | > 100 µM (inactive) | > 100 µM (inactive)
6 | CCOC(=O)Nc1cc2c(c(N)n1)N=C(c1ccc(OC)cc1)CN2 | 0.000446 µM (active) | 0.000621 | 0.00104 µM (active) | 0.000895 µM (active) | 0.00226 µM (active) | 0.757 µM (active) | 0.000407 µM (active) | 0.000637 µM (active) | < 0.0001 µM (active) | 0.000349 µM (active) | 0.00363 µM (active) | 0.000494 µM (active) | 0.00015 µM (active) | 0.186 µM (active) | < 0.0001 µM (active) | 0.0101 µM (active) | < 0.0001 µM (active) | < 0.0001 µM (active) | 0.0015 µM (active)
7 | NS(=O)(=O)c1c(O)c2ccccc2oc1=O | > 100 µM (inactive) |  | > 100 µM (inactive) | > 100 µM (inactive) | > 100 µM (inactive) | > 100 µM (inactive) | > 100 µM (inactive) | > 100 µM (inactive) | > 100 µM (inactive) | > 100 µM (inactive) | > 100 µM (inactive) | > 100 µM (inactive) | > 100 µM (inactive) | > 100 µM (inactive) | > 100 µM (inactive) | > 100 µM (inactive) | > 100 µM (inactive) | > 100 µM (inactive) | > 100 µM (inactive)
8 | CC(=N)OC1CC2CCC1(C)C2(C)C (centres undefined) | > 100 µM (inactive) | > 100 | > 100 µM (inactive) | > 100 µM (inactive) | > 100 µM (inactive) | > 100 µM (inactive) | > 100 µM (inactive) | > 100 µM (inactive) | > 100 µM (inactive) |  | > 100 µM (inactive) | > 100 µM (inactive) | > 100 µM (inactive) | > 100 µM (inactive) | > 100 µM (inactive) | > 100 µM (inactive) | > 100 µM (inactive) | > 100 µM (inactive) | > 100 µM (inactive)
